One assay concerns NF-κ B. The experiment in a line: Inhibitory activity of NF-κ B activation, luciferase reporter assay in HepG2 under TNF-α stimulation. The format is cell-based, human. Particulars: Homo sapiens. The procedure, abridged: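 HepG2 cells transiently transfected with a luciferase reporter driven by five tandem NF-κB binding sites, then incubated 6–24 h. Stimulated with TNF-α (40 ng/ml) with or without test compound for 4 h. Intracellular luciferase read by chemiluminescence; inhibition expressed relative to activity without compound.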
For orientation: In a reporter assay the amount or activity of a reporter protein is the signal.

The next assay has as its system IL-6. The experiment in a line: Inhibition of IL-6 production by TNFα stimulation in synovial fibroblasts derived from a rheumatoid patient (ELISA). The format is cell-based, human. Particulars: Homo sapiens, Fibroblast, 72 h; synovial fibroblasts, 10 ng/ml TNFα, 3 days; read-out: Inhibition against Mediator Release IC50(nM) IL-6. On the procedure:
(§1) Synovial fibroblasts (Human Synoviocyte (RA-Positive), Toyobo, T4040-05) were cultured for 3 days in a medium containing 10 ng/ml of TNFα and a test compound. IL-6 and IL-8 in the supernatant were measured by the ELISA method, and PGE2 (prostaglandin E2) was measured by the EIA method.
(An ELISA detects its analyte on a solid surface through an enzyme-linked reagent.)

The test system of the next assay is IL-8. Nature of the assay: Inhibition of IL-8 production by TNFα stimulation in synovial fibroblasts derived from a rheumatoid patient (ELISA). In kind it is cell-based, human. Particulars: Homo sapiens, Fibroblast, 72 h; synovial fibroblasts, 10 ng/ml TNFα, 3 days; read-out: Inhibition against Mediator Release IC50(nM) IL-8. As to the method:
as §1

Another assay concerns PGE2. Nature of the assay: Inhibition of PGE2 production by TNFα stimulation in synovial fibroblasts derived from a rheumatoid patient (EIA). The format is cell-based, human. To be noted: Homo sapiens, Fibroblast, 72 h; synovial fibroblasts, 10 ng/ml TNFα, 3 days; read-out: Inhibition against Mediator Release IC50(nM) PGE2. On the procedure:
as §1

The test system of assay [1] is type II collagen induced arthritis. The experiment in a line: Inhibitory test against type II collagen induced arthritis in mice. Particulars: 10 mg/kg intraperitoneally once in two days; day 44; score of the control = 100%. In kind it is in vivo, Balb/c mice. On the procedure:
Balb/c mice were immunized with heterologous type II collagen and Freund's complete adjuvant by subcutaneous or intraperitoneal injection. At 21 days after the treatment, these mice were immunized again with heterologous type II collagen and Freund's incomplete adjuvant by subcutaneous or intraperitoneal injection to develop arthritis.
A test substance suspended in an appropriate diluent or the diluent alone (negative control) was administered intraperitoneally once in two days from the day of the first immunization, and as for arthritis developed after the second immunization, clinical symptoms of each ankle joint of all foots were recorded day after day as numerous scores. When the score of the control measured on day 44 after administration of 10 mg/kg of the medicament of the present invention was expresses as 100%, rates of exacerbation (%) of the clinical symptoms of arthritis were 37.5 (Compound No. 4), 76.5 (Compound No. 90), 56.2 (Compound No. 11), 64.0 (Compound No. 88), and 0.0 (Compound No. 83).

The test system of assay [2] is myocardial ischemia reperfusion disorder. Nature of the assay: Inhibitory test against myocardial ischemia reperfusion disorder in rats. The format is in vivo, rat. Particulars: 5 mg/kg intraperitoneally; 24 hours after reperfusion. On the procedure:
Left coronary artery of 7 to 9 week-old rat was ligated to induce ischemic state. After 25 minutes, a test substance suspended in an appropriate diluent or the diluent alone (negative control) was intraperitoneally administered, and after 30 minutes, the animal was reperfused. After 24 hours, a rate of necrosis of an ischemic part of the cardiac muscle was measured.

The test system of assay [3] is Vascular smooth muscle cells of normal coronary artery (Cryo CASMC). The experiment in a line: Inhibitory test against proliferation of vascular smooth muscle cells of normal coronary artery under proliferation stimulation (MTS assay). In kind it is cell-based. To be noted: FGF and EGF stimulation, 72 hours. As to the method: Vascular smooth muscle cells of normal coronary artery (Cryo CASMC) were cultured for 2 hours in the presence or absence of a test substance in DMEM medium containing 0.5% of FBS and insulin (5 u g/ml). Then, FGF and EGF were added for proliferation stimulation. The mixture was cultured for 72 hours and proliferation of the cells were measured by the MTS assay. The results aree shown in the following
Background: Tetrazolium dyes change colour on reduction, which living cells bring about.

The subject of the next assay is Thy-1 nephritis. Nature of the assay: Rat Thy-1 nephritis model. The format is in vivo. To be noted: intraperitoneal administration of less than 15 mg/kg.
Assay [4] has as its system intestinal ischemic reperfusion-caused hepatopathy. Nature of the assay: Rat intestinal ischemic reperfusion-caused hepatopathy model. In kind it is in vivo. To be noted: intraperitoneal administration of 10 mg/kg.
Another assay deals with myocarditis. Nature of the assay: Rat myocarditis model immunized with pig heart-derived cardiac myosin. The format is in vivo. Particulars: intraperitoneal administration at 10 mg/kg.
Assay [5] relates to artery abrasion restenosis. Nature of the assay: Mouse artery abrasion restenosis model. Particulars: intraperitoneal administration at 10 mg/kg. In kind it is in vivo.

SMILES strings stand for the structures. Like-named read-outs stand apart in the source and are kept apart here.

`O=C(Nc1cc(C(F)(F)F)cc(C(F)(F)F)c1)c1cc(Cl)ccc1O` [Compound No.4, N-[3,5-bis(trifluoromethylphenyl)]-5-chloro-2-hydroxybenzamide]: in the assay with NF-κ B (HepG2, 4 h, 0.1 μg/ml, comparison table, reporter assay, read-out: Inhibitory Ratio of NF-κB Activation (%) 0.1 μg/ml), the inhibition at 0.1 µg/mL was 60.9%. The inhibition at 1 µg/mL in the assay with NF-κ B (HepG2, 4 h, 1 μg/ml, comparison table, reporter assay, read-out: Inhibitory Ratio of NF-κB Activation (%) 1 μg/ml) worked out at 95.7%; with NF-κ B (1 μg/mL, HepG2, TNF-α (40 ng/ml), 4 hours, read-out: Inhibitory Ratio of NF-κ B Activation(%) Drug Concentration 1 μg/mL), 95.7%. The inhibition at 10 µg/mL with NF-κ B (HepG2, 4 h, 10 μg/ml, comparison table, reporter assay, read-out: Inhibitory Ratio of NF-κB Activation (%) 10 μg/ml) was 97.5%; in the assay with NF-κ B (10 μg/mL, HepG2, TNF-α (40 ng/ml), 4 hours, read-out: Inhibitory Ratio of NF-κ B Activation(%) Drug Concentration 10 μg/mL), 97.5%. Moreover, the IC50 in the assay with IL-6 is 294 nM; in the assay with IL-8 it was 450 nM; in the assay on PGE2 it was 388 nM. In assay [1], the “rates of exacerbation (%) of the clinical symptoms of arthritis” value was found to be 37.5%. Further, the “inhibition of the necrosis of the cardiac muscle in comparison with the control” value in assay [2] came to 60%. Also, the “Inhibitory Ratio of Proliferation(%) Compound Concentration 250 nM” value in [3] (250 nM) is recorded as 87.9%. The “Inhibitory Ratio of Proliferation(%) Compound Concentration 500 nM” value in assay [3] (500 nM) is 92.2%. Moreover, the renal protective action result in the assay on Thy-1 nephritis was “exhibited a renal protective action”. For the same compound, the “TNFα concentration in blood” value in assay [4] is “lowered”. In addition, the “endotoxic levels in blood” value in assay [4] is “lowered endotoxic levels”. Further, the inhibition of hepatopathy entry in assay [4] was “significantly inhibited hepatopathy”. The “inhibition of the onset of myocarditis” value with myocarditis was “significantly also inhibited the onset of myocarditis”. Moreover, in assay [5], the “inhibition of proliferation of vascular endothelial cells and vascular smooth muscle cells” value is “significantly inhibited proliferation of vascular endothelial cells and vascular smooth muscle cells”.

One may read the IC50 as the concentration that inhibits the measured activity by half.

For the origin of these results see patent US20060089395A1, “Nf-kb activation inhibitors” (priority 2002, published 2006).
